Each structure is given as a SMILES string.

T1 sequence (P08069 999-1274 limits assumed): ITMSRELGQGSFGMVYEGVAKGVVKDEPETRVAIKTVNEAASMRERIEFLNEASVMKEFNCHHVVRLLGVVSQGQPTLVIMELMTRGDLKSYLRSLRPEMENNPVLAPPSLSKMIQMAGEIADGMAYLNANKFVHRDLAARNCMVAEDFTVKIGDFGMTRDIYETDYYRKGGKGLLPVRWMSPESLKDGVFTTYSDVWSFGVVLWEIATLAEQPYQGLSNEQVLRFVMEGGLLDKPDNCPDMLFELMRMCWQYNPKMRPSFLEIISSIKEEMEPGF

The assay has as its target T1, IGF-1R Ba/F3 (Homo sapiens, UniProt P08069).
T1 construct: fused on or other part: TEL- (or BCR-) IGF-1R in Ba/F3: the kinase part holds the site
In words: Ba/F3 Cell Viability Inhibition Assay (IGF-1R Ba/F3). Format: cell-based, murine. Particulars: Tel-TK transformed Ba/F3 cells, 48 hours, Britelite luminescence. The essentials: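 A 48 h compound treatment at 37 °C (3750 cells/well) was followed by Britelite luminescence to measure viability. Cells were Ba/F3 pro-B cells, IL-3-independent via TEL-fused IGF-1R kinase transduction. A logistic fit gave IC50 as 50% viability relative to DMSO control.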
As to `Cc1cc(Nc2nc(Nc3cc(C)c(C4CCN(CCc5nc(C(C)C)no5)CC4)cc3C)ncc2Cl)n[nH]1` [Compound 269, 5-Chloro-N2-(4-(1-(2-(3-isopropyl-1,2,4-oxadiazol-5-yl)ethyl)piperidin-4-yl)-2,5-dimethylphenyl)-N4-(5-methyl-1H-pyrazol-3-yl)pyrimidine-2,4-diamine], the midpoint of inhibition, the IC50, lay at 39 nM.

Regarding `Cc1cc(Nc2nc(Nc3cc(C)c([C@H]4CCN[C@@H](C)C4)cc3F)ncc2Cl)n[nH]1` (relative stereo) [Compound 280, 5-chloro-N2-(2-fluoro-5-methyl-4-((cis)-2-methylpiperidin-4-yl)phenyl)-N4-(5-methyl-1H-pyrazol-3-yl)pyrimidine-2,4-diamine], the IC50 (as a rule, the concentration needed to halve the response being measured) is 163 nM.

The compound `Cc1cc(Nc2nc(Nc3cc(C(F)(F)F)c(N4CCN(C)CC4)cc3F)ncc2Cl)n[nH]1` [Compound 157, 5-chloro-N^2-(2-fluoro-4-(4-methylpiperazin-1-yl)-5-(trifluoromethyl)phenyl)-N^4-(5-methyl-1H-pyrazol-3-yl)pyrimidine-2,4-diamine] displayed an IC50 of 75 nM.

The compound `CNC(=O)CN1CCCC(c2cc(C)c(Nc3ncc(Cl)c(Nc4cc(C)[nH]n4)n3)cc2C)C1` (stereo not drawn) [Compound 44, 2-(3-(4-(5-chloro-4-(5-methyl-1H-pyrazol-3-ylamino)pyrimidin-2-ylamino)-2,5-dimethylphenyl)piperidin-1-yl)-N-methylacetamide] came in with an IC50 of 15 nM.

On to `Cc1cc(Nc2nc(Nc3cc(C)c(C4CCN(Cc5ccnnc5)CC4)cc3F)ncc2Cl)n[nH]1` [Compound 316, 5-chloro-N2-(2-fluoro-5-methyl-4-(1-(pyridazin-4-ylmethyl)piperidin-4-yl)phenyl)-N4-(5-methyl-1H-pyrazol-3-yl)pyrimidine-2,4-diamine], for which the midpoint of inhibition, the IC50, lay at 27 nM.

`Cc1cc(Nc2nc(Nc3cc(C)c(C4CCN(C5CNC5)CC4)cc3F)ncc2Cl)n[nH]1` [Compound 296, N2-(4-(1-(azetidin-3-yl)piperidin-4-yl)-2-fluoro-5-methylphenyl)-5-chloro-N4-(5-methyl-1H-pyrazol-3-yl)pyrimidine-2,4-diamine] gave an IC50 of 101 nM.

`Cc1cc(Nc2nc(Nc3cc(C)c(C4CCN(C(=O)N5CCN(C)CC5)CC4)cc3F)ncc2Cl)n[nH]1` [Compound 112, (4-(4-(5-chloro-4-(5-methyl-1H-pyrazol-3-ylamino)pyrimidin-2-ylamino)-5-fluoro-2-methylphenyl)piperidin-1-yl)(4-methylpiperazin-1-yl)methanone] showed an IC50 of 21 nM.

For `Cc1cc(Nc2nc(Nc3cc(C)c(C4CCCCN4C[C@@H](O)C(F)(F)F)cc3C)ncc2Cl)n[nH]1` (stereo partly drawn) [Compound 229, (2R)-3-(2-(4-(5-chloro-4-(5-methyl-1H-pyrazol-3-ylamino)pyrimidin-2-ylamino)-2,5-dimethylphenyl)piperidin-1-yl)-1,1,1-trifluoropropan-2-ol], 211 nM corresponded to half-maximal inhibition (IC50).

`Cc1cc(Nc2nc(Nc3cc(C)c(C4CCCCN4C)cc3C)ncc2Cl)n[nH]1` (stereo not drawn) [Compound 16, 5-chloro-N2-(2,5-dimethyl-4-(1-methylpiperidin-2-yl)phenyl)-N4-(5-methyl-1H-pyrazol-3-yl)pyrimidine-2,4-diamine]: the IC50 is 19 nM.

In the case of `CNC(=O)CN1CCC(c2cc(C)c(Nc3ncc(Cl)c(Nc4cc(C(F)(F)F)[nH]n4)n3)cc2C)CC1` [Compound 220, 2-(4-(4-(5-chloro-4-(5-(trifluoromethyl)-1H-pyrazol-3-ylamino)pyrimidin-2-ylamino)-2,5-dimethylphenyl)piperidin-1-yl)-N-methylacetamide], the IC50 is 37 nM.

The compound `Cc1cc(Nc2nc(Nc3cc(C)c(C4CCN(C(=O)C5(O)CC5)CC4)cc3F)ncc2Cl)n[nH]1` [Compound 192, (4-(4-(5-chloro-4-(5-methyl-1H-pyrazol-3-ylamino)pyrimidin-2-ylamino)-5-fluoro-2-methylphenyl)piperidin-1-yl)(1-hydroxycyclopropyl)methanone] came in with an IC50 of 21 nM.

`Cc1cc(Nc2nc(Nc3cc(C)c(C4CCN(C5=CC(=O)CC5)CC4)cc3F)ncc2Cl)n[nH]1` [Compound 282, 3-(4-(4-(5-Chloro-4-(5-methyl-1H-pyrazol-3-ylamino)pyrimidin-2-ylamino)-5-fluoro-2-methylphenyl)piperidin-1-yl)cyclopent-2-en-one] registered an IC50 of 48 nM.

On to `Cc1cc(Nc2ncc(Cl)c(Nc3cc(C4CC4)[nH]n3)n2)c(F)cc1C1CCN(CC(N)=O)CC1` [Compound 34, 2-(4-(4-(5-chloro-4-(5-cyclopropyl-1H-pyrazol-3-ylamino)pyrimidin-2-ylamino)-5-fluoro-2-methylphenyl)piperidin-1-yl)acetamide], for which the IC50 is 49 nM.

`CC(=O)N1CCC(c2cc(C)c(Nc3ncc(Cl)c(Nc4cc(C)[nH]n4)n3)cc2C)CC1` [Compound 110, 1-(4-(4-(5-chloro-4-(5-methyl-1H-pyrazol-3-ylamino)pyrimidin-2-ylamino)-2,5-dimethylphenyl)piperidin-1-yl)ethanone]: the IC50 was 13 nM.

As for `Cc1cc(Nc2nc(Nc3cc(C)c(C4CCN(C(=O)Cn5cccc5)CC4)cc3F)ncc2Cl)n[nH]1` [Compound 100, 1-(4-(4-(5-chloro-4-(5-methyl-1H-pyrazol-3-ylamino)pyrimidin-2-ylamino)-5-fluoro-2-methylphenyl)piperidin-1-yl)-2-(1H-pyrrol-1-yl)ethanone], the IC50 stood at 25 nM.

Consider `Cc1cc(C2CCNCC2)c(C)cc1Nc1ncc(Cl)c(Nc2cc(C3CC3)[nH]n2)n1` [Compound 18, 5-chloro-N4-(5-cyclopropyl-1H-pyrazol-3-yl)-N2-(2,5-dimethyl-4-(piperidin-4-yl)phenyl)pyrimidine-2,4-diamine], for which the IC50 was found to be 95 nM.

Turning to `Cc1cc(Nc2nc(Nc3cc(C)c(C4CCN(C(=O)[C@@H]5CCN5)CC4)cc3F)ncc2Cl)n[nH]1` [Compound 132, (S)-azetidin-2-yl(4-(4-(5-chloro-4-(5-methyl-1H-pyrazol-3-ylamino)pyrimidin-2-ylamino)-5-fluoro-2-methylphenyl)piperidin-1-yl)methanone], the IC50 is 161 nM.

With `Cc1cc(Nc2nc(Nc3cc(C)c(C4CCCCN4CC(N)=O)cc3C)ncc2Cl)n[nH]1` (stereo not drawn) [Compound 181, 2-(2-(4-(5-Chloro-4-(5-methyl-1H-pyrazol-3-ylamino)pyrimidin-2-ylamino)-2,5-dimethylphenyl)piperidin-1-yl)acetamide], the IC50 was 24 nM.

`CCOC(=O)N1CCC(c2cc(C)c(Nc3ncc(Cl)c(Nc4cc(C)[nH]n4)n3)cc2Cl)CC1` [Compound 67, ethyl 4-(2-chloro-4-(5-chloro-4-(5-methyl-1H-pyrazol-3-ylamino)pyrimidin-2-ylamino)-5-methylphenyl)piperidine-1-carboxylate] had a 50% inhibitory concentration (IC50) of 182 nM.

In turn, `CNC(=O)CN1CCC(c2cc(C)c(Nc3ncc(Cl)c(Nc4cc(C5CC5)[nH]n4)n3)cc2C)CC1` [Compound 33, 2-(4-(4-(5-chloro-4-(5-cyclopropyl-1H-pyrazol-3-ylamino)pyrimidin-2-ylamino)-2,5-dimethylphenyl)piperidin-1-yl)-N-methylacetamide] registered an IC50 of 6 nM.

For `Cc1cc(Nc2nc(Nc3cc(C)c(C4CCN(CC5CC5(F)F)CC4)cc3C)ncc2Cl)n[nH]1` (stereo not drawn) [Compound 249, 5-chloro-N2-(4-(1-((2,2-difluorocyclopropyl)methyl)piperidin-4-yl)-2,5-dimethylphenyl)-N4-(5-methyl-1H-pyrazol-3-yl)pyrimidine-2,4-diamine], inhibition was half-maximal at 32 nM (IC50).

Values taken from US8859574B2 (IRM LLC, priority 2008, dated 2014).
